Source: patent publication US20110306621A1, “ACYLGUANIDINE DERIVATIVES” (priority 2009, published 2011)

Target: T1, human 5-HT5A receptor (Homo sapiens, UniProt P47898)
T1 construct: expressed in transfected cells; membranes used
Test: Test on a human 5-HT5A receptor binding inhibition ([3H]5-CT)
Settings: membrane from HEK293 cells for forced expression of human 5-HT5A receptor; Ki calculated from IC50 and Kd of [3H]5-CT (4.95 nM)
Description: The ORF (open reading frame; protein coding region) of a human 5-HT5A receptor (Genbank AF498985) was cloned from a human hippocampus cDNA library, and then inserted into a pCR2.1 vector (Invitrogen), and Escherichia coli containing the plasmid was cultured in a large amount. Next, the full-length cDNA sequence of the human 5-HT5A receptor was analyzed, and recombined into a pcDNA3.1 vector (Invitrogen) as an expression vector and cultured in a large amount. HEK293 established cells (ATCC) derived from the human fetal kidney were seeded, the expression plasmid (1 μg) obtained above were added thereto with LIPOFECTAMINE 2000 (Invitrogen; 2 μl), the gene was transfected into HEK293 cells, and the expression cells were screened with a drug-resistant marker, Geneticin (G418 sulfate 500 μg/ml; Kanto Chemical Co., Inc.). Thus prepared recombinant cells which expressed the gene were cultured in a medium containing D-MEM (Dulbecco's modified eagle medium, Sigma), 10% FCS (Fetal calf serum: fetal bovine serum), 1% Pc./Sm (Penicillin/Streptomycin, Invitrogen), and 500 μg/ml G418 for 3 days. These experimental operations followed a manual for gene operation experiment and an instruction appended in a reagent, and the like, such as a known method (Sambrook, J. et al, Molecular Cloning-A Laboratory Manual”, Cold Spring Harabor laboratory, NY, 1989).
HEK293 cells for forced expressions of a human 5-HT5A receptor were cultured in a F500 plate, and scraped with a scraper. After centrifugation, the precipitate was collected, and an incubation buffer (50 mM Tris (HCl) (pH 7.4), 10 mM MgSO4, and 0.5 mM EDTA (ethylenediamine tetraacetic acid)) was added thereto. After homogenization, it was further centrifuged, and the incubation buffer was added to the precipitate, followed by thoroughly suspending. The operation was repeated, and protein concentration was measured, thereby completing preparation of the membrane.
A solution of the compound to be tested and 100 μM 5-CT (5-carboxamidetriptamine) in DMSO was added to a 96-well plate at 2 μl/well, suspended in an incubation buffer, and a membrane from HEK293 cells for forced expressions of a human 5-HT5A receptor prepared at 200 μg/ml was added at 100 μl/well. After incubation at room temperature for 15 minutes, a [^3H]5-CT solution (2 nM [^3H]5-CT, incubation buffer) was added thereto at 100 μl/well.
Separately, 100 μl of the solution was distributed into a liquid scintillation vial, and 2 ml of Aquasol II (registered trademark) was added thereto, followed by stirring. Then, radioactivity was measured by a liquid scintillation counter. It was incubated at 37° C. for 60 minutes. The reaction mixture was sucked into 96-well GF/C filter plate that had been pre-treated with 0.2% polyethyleneimine, and washed six times with an ice-cooled, 50 mM Tris (pH 7.5) buffer. The GF/C filter plate was dried.
Microscint TMPS (registered trademark) was added thereto at 40 μl/well. Radioactivity remaining on the GF/C filter plate was measured by a top counter.
The [^3H]5-CT binding inhibiting activity by the compound to be tested in each experiment was determined as an IC50 value with a radioactivity upon addition of DMSO alone being 0% inhibition, and a radioactivity upon addition of 1 μM 5-CT being 100% inhibition. Separately, Ki values were calculated from the Kd value of the [^3H]5-CT determined from Scatchard analysis, by the following equation.
Ki=IC50 (1+Concentraion of ligand added/Kd (4.95 nM))

T1 sequence (P47898 whole entry): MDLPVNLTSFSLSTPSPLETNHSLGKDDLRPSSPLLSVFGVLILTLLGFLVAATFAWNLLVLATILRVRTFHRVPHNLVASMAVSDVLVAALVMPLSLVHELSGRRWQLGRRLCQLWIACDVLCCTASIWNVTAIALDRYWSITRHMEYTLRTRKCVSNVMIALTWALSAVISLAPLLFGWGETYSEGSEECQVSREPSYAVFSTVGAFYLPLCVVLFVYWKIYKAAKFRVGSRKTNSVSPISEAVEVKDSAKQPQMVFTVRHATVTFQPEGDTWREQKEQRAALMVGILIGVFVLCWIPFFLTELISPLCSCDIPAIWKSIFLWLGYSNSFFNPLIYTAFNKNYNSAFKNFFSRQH

Row | SMILES | Ki
1 | N#Cc1ccc(-c2cccc3ccc(C(=O)N=C(N)N)cc23)cc1 [Example 2] | 0.3 to 3 nM
2 | COc1cc(C#N)ccc1-c1cccc2ccc(C(=O)N=C(N)N)cc12 [Example 3] | 0.3 to 3 nM
3 | COc1cc(F)ccc1-c1cccc2ccc(C(=O)N=C(N)N)cc12 [Example 4] | 0.3 to 3 nM
4 | COc1ccc(-c2cccc3ccc(C(=O)N=C(N)N)cc23)c(OC)c1 [Example 5] | 0.3 to 3 nM
5 | NC(N)=NC(=O)c1ccc2cccc(-c3ccccc3F)c2c1 [Example 6] | 0.3 to 3 nM
6 | NC(N)=NC(=O)c1ccc2cccc(-c3ccccc3Cl)c2c1 [Example 7] | 0.3 to 3 nM
7 | COc1ncccc1-c1cccc2ccc(C(=O)N=C(N)N)cc12 [Example 8] | 3 to 30 nM
8 | N#Cc1ccc(-c2c(F)ccc3ccc(C(=O)N=C(N)N)cc23)cc1 [Example 9] | 0.3 to 3 nM
9 | Cc1ccc2ccc(C(=O)N=C(N)N)cc2c1-c1ccc(C#N)cc1 [Example 10] | 0.3 to 3 nM
10 | Cc1ccc2ccc(C(=O)N=C(N)N)cc2c1-c1ccc(F)cc1 [Example 11] | 0.3 to 3 nM
11 | COc1ccc(-c2c(C)ccc3ccc(C(=O)N=C(N)N)cc23)cc1 [Example 12] | 0.3 to 3 nM
12 | NC(N)=NC(=O)c1ccc2cccc(-c3ccccc3O)c2c1 [Example 13] | 0.3 to 3 nM
13 | NC(N)=NC(=O)c1ccc2cccc(-c3c(F)cc(F)cc3F)c2c1 [Example 14] | 0.3 to 3 nM
14 | COc1ccc(C#N)cc1-c1cccc2ccc(C(=O)N=C(N)N)cc12 [Example 15] | 3 to 30 nM
15 | N#Cc1cc(F)ccc1-c1cccc2ccc(C(=O)N=C(N)N)cc12 [Example 16] | 3 to 30 nM
16 | Cc1nc(C)c(-c2cccc3ccc(C(=O)N=C(N)N)cc23)s1 [Example 17] | 3 to 30 nM
17 | COc1cccc(F)c1-c1cccc2ccc(C(=O)N=C(N)N)cc12 [Example 18] | 0.3 to 3 nM
18 | NC(N)=NC(=O)c1ccc2cccc(-c3cccnc3Cl)c2c1 [Example 19] | 3 to 30 nM
19 | N#Cc1ccccc1-c1cccc2ccc(C(=O)N=C(N)N)cc12 [Example 20] | 3 to 30 nM
20 | NC(N)=NC(=O)c1ccc2cccc(-c3cccnc3)c2c1 [Example 21] | 3 to 30 nM
21 | NC(N)=NC(=O)c1ccc2cccc(C3=CCOCC3)c2c1 [Example 22] | 3 to 30 nM
22 | NC(N)=NC(=O)c1ccc2cccc(-c3ccc(F)nc3)c2c1 [Example 23] | 3 to 30 nM
23 | Cc1ccc(-c2cccc3ccc(C(=O)N=C(N)N)cc23)cn1 [Example 24] | 3 to 30 nM
24 | NC(N)=NC(=O)c1ccc2cccc(-c3ccncc3F)c2c1 [Example 25] | 0.3 to 3 nM
25 | N#Cc1cccc(F)c1-c1cccc2ccc(C(=O)N=C(N)N)cc12 [Example 26] | 0.3 to 3 nM

Row | SMILES | Ki
26 | COc1c(F)cccc1-c1cccc2ccc(C(=O)N=C(N)N)cc12 [Example 27] | 3 to 30 nM
27 | NC(N)=NC(=O)c1ccc2cccc(-c3cccc4c3OCCO4)c2c1 [Example 28] | 3 to 30 nM
28 | N#Cc1c(F)cccc1-c1cccc2ccc(C(=O)N=C(N)N)cc12 [Example 29] | 3 to 30 nM
29 | COc1cccc(C#N)c1-c1cccc2ccc(C(=O)N=C(N)N)cc12 [Example 30] | 3 to 30 nM
30 | NC(N)=NC(=O)c1ccc2cccc(-c3c(F)cncc3F)c2c1 [Example 31] | 0.3 to 3 nM
31 | COc1cccc(Cl)c1-c1cccc2ccc(C(=O)N=C(N)N)cc12 [Example 32] | 0.3 to 3 nM
32 | N#Cc1cc(Cl)ccc1-c1cccc2ccc(C(=O)N=C(N)N)cc12 [Example 33] | 3 to 30 nM
33 | COc1ccc(F)cc1-c1cccc2ccc(C(=O)N=C(N)N)cc12 [Example 34] | 3 to 30 nM
34 | NC(N)=NC(=O)c1ccc2cccc(-c3ccc(F)cc3F)c2c1 [Example 35] | 0.3 to 3 nM
35 | NC(N)=NC(=O)c1ccc2cccc(-c3c(F)cccc3F)c2c1 [Example 36] | 0.3 to 3 nM
36 | NC(N)=NC(=O)c1ccc2cccc(-c3ccc(Cl)nc3Cl)c2c1 [Example 37] | 3 to 30 nM
37 | NC(N)=NC(=O)c1ccc2cccc(-c3cc(Cl)ncc3Cl)c2c1 [Example 38] | 3 to 30 nM
38 | N#Cc1ccc(F)cc1-c1cccc2ccc(C(=O)N=C(N)N)cc12 [Example 39] | 30 to 300 nM
39 | COc1cccc(-c2cccc3ccc(C(=O)N=C(N)N)cc23)c1F [Example 40] | 3 to 30 nM
40 | COc1ccc(F)c(-c2cccc3ccc(C(=O)N=C(N)N)cc23)c1 [Example 41] | 3 to 30 nM
41 | COc1cc(F)cc(F)c1-c1cccc2ccc(C(=O)N=C(N)N)cc12 [Example 42] | 0.3 to 3 nM
42 | NC(N)=NC(=O)c1ccc2cccc(-c3c(F)cc(Cl)cc3F)c2c1 [Example 43] | 0.3 to 3 nM
43 | NC(N)=NC(=O)c1ccc2cccc(-c3ccncc3Cl)c2c1 [Example 44] | 0.3 to 3 nM
44 | NC(N)=NC(=O)c1ccc2cccc(-c3c(Cl)cncc3Cl)c2c1 [Example 45] | 0.3 to 3 nM
45 | NC(N)=NC(=O)c1ccc2cccc(-c3cccs3)c2c1 [Example 46] | 0.3 to 3 nM
46 | NC(N)=NC(=O)c1ccc2cccc(-c3ccsc3)c2c1 [Example 47] | 0.3 to 3 nM
47 | Cc1ccsc1-c1cccc2ccc(C(=O)N=C(N)N)cc12 [Example 48] | 0.3 to 3 nM
48 | NC(N)=NC(=O)c1ccc2cccc(-c3sccc3Cl)c2c1 [Example 49] | 0.3 to 3 nM
49 | N#Cc1ccc(-c2cccc3ccc(C(=O)N=C(N)N)cc23)s1 [Example 50] | 0.3 to 3 nM
50 | N#Cc1sccc1-c1cccc2ccc(C(=O)N=C(N)N)cc12 [Example 51] | 3 to 30 nM

Row | SMILES | Ki
51 | NC(N)=NC(=O)c1ccc2cccc(-c3ccnc(F)c3)c2c1 [Example 52] | 3 to 30 nM
52 | NC(N)=NC(=O)c1ccc2cccc(-c3ccnc(Cl)c3)c2c1 [Example 53] | 3 to 30 nM
53 | NC(N)=NC(=O)c1ccc2cccc(-c3ccc(Cl)nc3)c2c1 [Example 54] | 3 to 30 nM
54 | NC(N)=NC(=O)c1ccc2cccc(-c3cncc(F)c3)c2c1 [Example 55] | 3 to 30 nM
55 | N#Cc1ncccc1-c1cccc2ccc(C(=O)N=C(N)N)cc12 [Example 56] | 3 to 30 nM
56 | COc1cc(Cl)ccc1-c1cccc2ccc(C(=O)N=C(N)N)cc12 [Example 57] | 0.3 to 3 nM
57 | NC(N)=NC(=O)c1ccc2cccc(-c3c(Cl)cccc3Cl)c2c1 [Example 58] | 0.3 to 3 nM
58 | NC(N)=NC(=O)c1ccc2cccc(-c3ccc(Cl)cc3F)c2c1 [Example 59] | 0.3 to 3 nM
59 | NC(N)=NC(=O)c1ccc2cccc(-c3ccc(F)cc3Cl)c2c1 [Example 60] | 0.3 to 3 nM
60 | NC(N)=NC(=O)c1ccc2cccc(-c3ccc(Cl)cc3Cl)c2c1 [Example 61] | 0.3 to 3 nM
61 | NC(N)=NC(=O)c1ccc2cccc(-c3cccnc3F)c2c1 [Example 62] | 0.3 to 3 nM
62 | COc1cc(-c2cccc3ccc(C(=O)N=C(N)N)cc23)c(Cl)cn1 [Example 63] | 3 to 30 nM
63 | CCOc1nccc(-c2cccc3ccc(C(=O)N=C(N)N)cc23)c1C#N [Example 64] | 3 to 30 nM
64 | NC(N)=NC(=O)c1ccc2cccc(-c3cc(F)ncc3Cl)c2c1 [Example 65] | 3 to 30 nM
65 | CCOc1ncc(Cl)c(-c2cccc3ccc(C(=O)N=C(N)N)cc23)c1F [Example 66] | 0.3 to 3 nM
66 | CCOc1ncc(Cl)c(-c2cccc3ccc(C(=O)N=C(N)N)cc23)c1Cl [Example 67] | 0.3 to 3 nM
67 | NC(N)=NC(=O)c1ccc2cccc(-c3cc(F)ccc3F)c2c1 [Example 68] | 0.3 to 3 nM
68 | NC(N)=NC(=O)c1ccc2cccc(-c3cccc(Cl)c3F)c2c1 [Example 69] | 0.3 to 3 nM
69 | NC(N)=NC(=O)c1ccc2cccc(-c3cc(Cl)ccc3F)c2c1 [Example 70] | 0.3 to 3 nM
70 | NC(N)=NC(=O)c1ccc2cccc(-c3cccc(F)c3F)c2c1 [Example 71] | 0.3 to 3 nM
71 | COc1ccc(-c2cccc3ccc(C(=O)N=C(N)N)cc23)c(C#N)c1 [Example 72] | 3 to 30 nM
72 | NC(N)=NC(=O)c1ccc2cccc(-c3cnccc3Cl)c2c1 [Example 73] | 0.3 to 3 nM
73 | NC(N)=NC(=O)c1ccc2cccc(-c3cncc(Cl)c3)c2c1 [Example 74] | 3 to 30 nM
74 | NC(N)=NC(=O)c1ccc2cccc(-c3cccc(Cl)c3Cl)c2c1 [Example 75] | 0.3 to 3 nM
